Results published in PubChem BioAssay (NCI).
Several values for one entry are separate records, joined by “and”; a condition that tells them apart may be missing. Equal values may be shown once.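 These data come from cells grown in 96-well plates and exposed to compound for 48 hours at five concentrations. Here, GI50 denotes the concentration required for 50% inhibition of growth. TGI denotes the concentration required for complete inhibition of growth.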

What was measured:
Assay in all cases: inhibition of tumour cell growth, NCI panel, 48 h
NCI/ADR-RES ovarian = system: NCI/ADR-RES ovarian
HOP-62 NSCLC = system: HOP-62 NSCLC
SNB-75 CNS = system: SNB-75 CNS
SF-539 CNS = system: SF-539 CNS
OVCAR-3 ovarian = system: OVCAR-3 ovarian
HL-60(TB) leukemia = system: HL-60(TB) leukemia
T-47D breast = system: T-47D breast
786-0 renal = system: 786-0 renal
HCT-15 colon = system: HCT-15 colon
RPMI-8226 leukemia = system: RPMI-8226 leukemia

Compound	TGI (NCI/ADR-RES ovarian)	TGI (HOP-62 NSCLC)	TGI (SNB-75 CNS)	TGI (SF-539 CNS)	TGI (OVCAR-3 ovarian)	TGI (HL-60(TB) leukemia)	TGI (T-47D breast)	TGI (786-0 renal)	TGI (HCT-15 colon)	TGI (RPMI-8226 leukemia)	GI50 (NCI/ADR-RES ovarian)	GI50 (SF-539 CNS)	GI50 (OVCAR-3 ovarian)	GI50 (HL-60(TB) leukemia)	GI50 (T-47D breast)	GI50 (HCT-15 colon)	GI50 (RPMI-8226 leukemia)
COC(=O)[C@@]12CC3CN(Cc4c1[nH]c1ccccc41)C2CC3=O	> 100 µM	> 100 µM	> 100 µM	> 100 µM	> 100 µM	> 100 µM	> 100 µM	> 100 µM	> 100 µM	> 100 µM							
Cc1cc(C)c2c(=O)n(CC(O)CN3CCN(c4ncccn4)CC3)sc2n1 (stereo not given)	78 µM	42 µM	28.4 µM	31.6 µM	34.5 µM	38.9 µM	52.9 µM	27.6 µM	35.4 µM	44 µM							
CCOC(=O)C(NC(=O)Nc1ccccc1)(Nc1cccc(Cl)c1)C(F)(F)F (stereo not given)	> 100 µM	> 100 µM	> 100 µM	> 100 µM	> 100 µM	> 100 µM	> 100 µM	> 100 µM	> 100 µM	> 100 µM							
COC(=O)c1ccc2c(c1)CCN2C(=O)c1cc2c(cc1Br)OCO2	4.79 µM and 0.693 µM	50 µM and > 100 µM	50 µM		3.99 µM and 1.43 µM	10.2 µM and 17.1 µM	50 µM and 51.9 µM	27.4 µM and > 100 µM	50 µM and 23.5 µM		0.262 µM	2.93 µM	0.363 µM	0.31 µM	0.982 µM	0.378 µM	1.15 µM
Cc1cc(S(=O)(=O)Nc2nc(N)n(-c3ccccc3)n2)c(S)cc1Cl	> 100 µM	> 100 µM	> 100 µM	> 100 µM	> 100 µM	> 100 µM	> 100 µM	> 100 µM	> 100 µM	> 100 µM							
O=C(O)c1cc(/C=C/c2ccc(O)c(O)c2)ccc1O	> 100 µM	> 100 µM	> 100 µM	> 100 µM	> 100 µM	> 100 µM	> 100 µM	> 100 µM	> 100 µM	> 100 µM							
COc1c2c(cc3oc(=O)ccc13)OC(C)(C)C=C2	70.6 µM	> 125 µM	56.6 µM	> 125 µM	> 125 µM	45.2 µM	23.6 µM	63.8 µM	65.5 µM	87.6 µM							
NC(=O)c1ccc(N)nc1	> 400 µM	> 247 µM	> 125 µM	28.3 µM	> 400 µM	> 400 µM	> 400 µM	> 400 µM	> 400 µM	201 µM							
O=C1NC(N2CCOCC2)=N/C1=C\c1ccccc1	> 100 µM	> 100 µM	> 100 µM	> 100 µM	> 100 µM	> 100 µM	> 100 µM	> 100 µM	> 100 µM	> 100 µM							
O=C(NCCc1ccc(F)cc1)c1cc(/C=C/c2cc(O)ccc2O)ccc1O	10.7 µM	14.8 µM	14.4 µM	5.84 µM	8.44 µM	15.4 µM	5.28 µM	5.03 µM	6.32 µM	> 100 µM							
COC(=O)/C=C1\C(=O)N(C(C)=O)c2ccccc21	62.8 µM	30.2 µM	28.4 µM	> 46.4 µM	23 µM	5.61 µM	30.5 µM	20.9 µM	26.2 µM	47.6 µM							
CC1CCC(O)/C=C/C(=O)OC(C)C(O)/C=C/C(=O)O1 (stereo not given)	> 100 µM	> 100 µM	> 100 µM	> 100 µM	> 100 µM	> 79.5 µM	> 100 µM	> 100 µM	> 100 µM	> 100 µM							
Nc1c2c(nc3ccccc13)-c1ccccc1CCC2	34.3 µM	22.3 µM	24.2 µM	26.2 µM	29.8 µM	26.4 µM	37.5 µM	27.1 µM	27.3 µM	33.5 µM							
COc1cc(C(C)(C)C)c(OC(=O)/C=C/C(=O)O/C=C/[N+](=O)[O-])c(C(C)(C)C)c1	57.8 µM	> 100 µM	> 100 µM	> 100 µM	> 100 µM	4.29 µM	> 100 µM	> 100 µM	48.4 µM	> 100 µM							
Cc1cc([C@H](C#N)c2nc3ccccc3s2)nc(Cl)n1	10.8 µM	> 100 µM	6.54 µM	64 µM	> 100 µM	> 100 µM	31.6 µM	29.8 µM	16.3 µM	15.6 µM							
NCCCCN(CCCN)C(=O)OCc1ccccc1	> 100 µM	> 100 µM	> 100 µM	> 100 µM	> 100 µM	> 100 µM	> 100 µM	> 100 µM	> 100 µM	> 100 µM							
COc1ccc(NC(=O)c2cc(NC(=O)/C=C/c3ccccc3)c(OC)c(OC)c2)cc1	> 100 µM	> 100 µM	48.5 µM	> 100 µM	> 100 µM	45.4 µM	> 100 µM	> 100 µM	> 100 µM	> 100 µM							
O=C1CCCc2ccc3c(c21)CC1(Cc2cc4c(cc2C1)CCCC4)C3	> 100 µM	57.1 µM	65.1 µM	48.7 µM	40.3 µM	26.3 µM	23.2 µM	33 µM	61.3 µM	35.5 µM							
